Assay results taken from patent US20060229276A1, “Use of glycosoaminoglycans for the prevention and treatment of sepsis” (priority 2004, published 2006).
“Also recorded” adds a separate entry of the source. Read-outs that look alike come from different tables or passages of the source.

Key:
[1] = test system: S. aureus strain K2; test: S. aureus strain K2-induced sepsis in mice (survival, weight, clinical appearance); settings: for survival versus PBS control: 20 μg/mouse s.c.
Procedure: FIGS. 5A-B show the dose effect of dermatan sulfate on the survival of mice infected with a […] dose S. aureus. S. aureus K2 was grown to log phase and set via a nephelometer to an LD60-80% (30 million cfu per mouse in FIG. 5A; 35 million cfu per mouse in FIG. 5B). Balb/c mice were infected intravenously (0.5 ml) on day zero. Animals were then inoculated subcutaneously with low molecular weight heparin or dermatan sulfate (20 μg/mouse) at two hour and subsequently every twenty-four hours. Control group mice were injected with PBS. Clinical appearance and weight was recorded daily.
FIGS. 6A-B show the dose effect of dermatan sulfate (DS) on mice infected with S. aureus strain K2. S. aureus strain K2 was grown to log phase and set via a nephelometer to a lethal concentration of 40 million cfu per mouse. Balb/c mice were infected intravenously with 40 m cfu's of S. aureus K2. Treatment groups were injected subcutaneously with increasing doses of dermatan sulfate (0.1 to 12.5 mg/kg body weight or 2 to 250 μg of dermatan sulfate) at two hour and subsequently every twenty-four hours. Control group mice were injected subcutaneously with PBS. Clinical appearance and weight were recorded daily. […] In FIG. 6A, n=15 in PBS and n=10 for all doses of dermatan sulfate and in FIG. 6B, n=10 for both the doses of dermatan sulfate.
FIGS. 7A-B show the dose effect of dermatan sulfate (DS) on mice infected with S. aureus strain K2. S. aureus strain K2 was grown to log phase and set via a nephelometer to a lethal concentration of 40 million cfu per mouse. Balb/c mice were infected intravenously with 40 m cfu's of S. aureus K2 on day 0. Treatment groups were injected subcutaneously with increasing doses of dermatan sulfate (0.025 to 25 mg/kg body weight or 0.5 to 500 μg of dermatan sulfate) at two hour and subsequently every twenty-four hours. Control group mice were injected subcutaneously with PBS. Clinical appearance and weight were recorded daily.

[2] = test system: extrinsic pathway of coagulation; test: Prothrombin time in plasma of S. aureus K2-infected mice; assay type: in vivo, Balb/c mice; settings: 48 hours after infection
Procedure: (§1) FIGS. 8A-B show the effect of dermatan sulfate (DS) on the prothrombin time (FIG. 8A) and partial thromboplastin time (FIG. 8B) of mice treated with dermatan sulfate after the onset of S.aureus-induced sepsis. […] Control group mice were injected subcutaneously with PBS or dermatan sulfate (50 or 500 μg dermatan sulfate per mouse per day). Mice were bled at 48 hours after infection via tail vein. Blood collected in 0.12 M sodium citrate in a 9:1 ratio of blood to citrate. Samples were centrifuged and plasma collected and frozen at −20° C. until use. Plasmas were diluted 1:3 in Owrens buffer for analysis. Prothrombin time (PT) and partial thromboplastin time (PTT) were determined utilizing an XM coagulometer according to manufacturer's instructions.
To ascertain the physiological pathway that is modulated by dermatan sulfate, coagulation profiles of mice treated with low and high concentrations of the compound in the context of S. aureus-induced sepsis was assessed. The extrinsic pathway of coagulation was first evaluated by measuring the prothrombin time (PT) in the plasma of mice forty eight hours after infection with S. aureus and treatment with dermatan sulfate. […] Prothrombin time (PT) was determined utilizing an XM coagulometer according to the manufacturer's instructions.

[3] = test system: protein C; test: Protein C levels in plasma of S. aureus K2-infected mice; assay type: in vivo, Balb/c mice; settings: 48 hours
Procedure: Balb/c mice were infected intravenously with 40 million cfu's of S. aureus K2 on day zero. […] Control group mice were injected subcutaneously with PBS or dermatan sulfate (50 or 500 μg dermatan sulfate per mouse per day). Mice were bled at 48 hours after infection via tail vein. Blood collected in 0.12 M sodium citrate in a 9:1 ratio of blood to citrate. Samples were centrifuged and plasma collected and frozen at −20° C. until use. Plasmas were diluted 1:9 in Owrens buffer for analysis. Protein C levels were as percent levels based on standards and its ability to prolong partial thromboplastin time. Clotting assay was evaluated using an XM coagulometer according to manufacturer's instructions.
Plasma samples from S.aureus infected mice were prepared as described in Example 7. Protein C in the plasma was determined as percent levels based on standards and their ability to prolong partial thromboplastin time. Clotting assay was evaluated using an XM coagulometer according to manufacturer's instructions.

[4] = test system: intrinsic pathway of coagulation; test: Partial thromboplastin time in plasma of S. aureus K2-infected mice; assay type: in vivo, Balb/c mice; settings: 48 hours after infection
Procedure: as §1
The effect of dermatan sulfate on the intrinsic pathway of coagulation was determined by measuring the active partial thromboplastin time. Plasma samples from S.aureus infected mice was prepared as described in example 7. Partial thromboplastin time (PTT) was determined utilizing an XM coagulometer according to the manufacturer's instructions.

[5] = test system: Fibrinogen; test: Fibrinogen levels in plasma of S. aureus K2-infected mice; assay type: in vivo, Balb/c mice; settings: 50-500 μg/day s.c.; 48 hours after infection
Procedure: Control group mice were injected subcutaneously with PBS or dermatan sulfate (50 or 500 μg dermatan sulfate per mouse per day). Mice were bled at 48 hours after infection via tail vein. Blood collected in 0.12 M sodium citrate in a 9:1 ratio of blood to citrate. Samples were centrifuged and plasma collected and frozen at −20° C. until use. Plasmas were diluted 1:9 in Owrens buffer for analysis. Fibrinogen levels were determined utilizing control standards as measured by an XM coagulometer according to manufacturer's instructions.
Plasma samples from S.aureus infected mice were prepared as described in example 7. Fibrinogen levels were determined utilizing control standards using an XM coagulometer according to manufacturer's instructions.

[6] = Toxicity of high dose dermatan sulfate in non infected control mice; assay type: in vivo; settings: 500 μg/day
Procedure: A very high dose of approximately 25 mg/kg body weight is detrimental to the infected mice after the onset of sepsis (FIG. 7A). […] But, a high dose of dermatan sulfate was non-toxic to non infected control mice treated with 500 μg/day of dermatan sulfate.

[7] = in vivo, cited from earlier work
[8] = test system: S. aureus; assay type: in vivo, mice; settings: 100 or 50 μg per mouse
Procedure: The therapeutic index of low molecular weight heparin was also evaluated by using several-fold concentrations in excess of the clinical dose (1 mg/kg or 20 μg/mouse). […] These adverse effects included hematuria, subcutaneous hematomas, and bleeding at the site of injection. The majority of the mice that died in the low molecular weight heparin group were documented with at least one episode of bleeding. […] Insight into the actual cause of bleeding can be gained by examining the coagulation profiles.

[9] = test system: S. aureus strain CYL574; test: S. aureus strain CYL574-induced septic death in mice (survival); assay type: in vivo, Balb/c mice
Procedure: Mice in control group were injected intraperitoneally with PBS.
Experiments evaluating the effects of low molecular weight heparin in preventing mortality and/or prolonging survival were conducted in an animal model of S. aureus-induced septic death.

[10] = 30 million cfu K2, FIG. 5A, n=15
[11] = 35 million cfu K2, FIG. 5B, n=20
[12] = infected mice treated with 50 or 500 μg per mouse s.c.

chondroitin sulfate A
effect of continued daily high doses in infected mice ([1]; s.c., continued daily high doses): detrimental
survival as compared to infected mice treated with PBS ([1]; s.c., greater than 10 mg/kg body weight or greater than 200 μg per mouse, FIG. 4): prolonged survival
survival ([1]; s.c., very high doses >100 mg/kg body weight, first days after onset of sepsis): augmented survival

dermatan sulfate
survival versus PBS control [1, 10]: substantial survival rate
survival versus PBS control [1, 11]: dramatic survival rate
clinical state ([1]; 500 μg/day s.c., first twenty four to forty eight hours): did clinically well
effect of very high dose on infected mice (survival) ([1]; approximately 25 mg/kg body weight, 500 μg/day s.c., FIG. 7A): detrimental; also recorded: poor survival
weight of surviving animals ([1]; higher-survival dose versus lower doses, FIG. 6B): substantially lost more weight
protection, high versus lower doses ([1]; s.c., high doses >1 mg/Kg versus <1 mg/Kg, FIGS. 6A-7B): more protective than lower doses
survival rates with tapered dose ([1]; tapering from 16 mg/kg, halved every day to approximately 0.025 mg/Kg on day 13, FIG. 7B): optimal survival rates
prothrombin time as compared to infected PBS treated mice ([2]; 500 μg/day (high dose) s.c.): increase the prothrombin time; also recorded: significant increase in prothrombin time
prothrombin time [2, 12]: contracted prothrombin times
protein C levels ([3]; 50 μg/day s.c. (low doses, <10 mg/Kg)): decrease protein C levels; also recorded: broad range of protein c levels that were higher and lower
protein C levels ([3]; 500 μg/day s.c. (high levels, >20 mg/kg), 20 mg/kg): increase plasma C levels; also recorded: dramatically increase protein C levels
partial thromboplastin time as compared to infected PBS treated mice ([4]; 50 μg/day (low dose) s.c.): decrease the partial throboplastin time; also recorded: slight decrease
partial thromboplastin time as compared to PBS treated infected mice ([4]; 500 μg/day s.c.): significantly prolonged
partial thromboplastin time [4, 12]: prolonged partial thromboplastin time
fibrinogen levels as compared to infected PBS treated mice [5]: did not exhibit any significant difference
toxicity in non infected control mice [6]: non-toxic

low molecular weight heparin
survival versus PBS control [1, 10]: higher rate a survival than the control group
survival versus PBS control [1, 11]: higher survival rate than the PBS-treated mice
survival rate ([1]; 1 mg/kg i.p., 72 hr, supra-lethal dose K2, PBS control 20%): 70%
survival rate ([1]; 1 mg/kg i.p., 96 hr, supra-lethal dose K2, PBS control 0%, p=0.01): 60%
survival rate ([1]; 5 mg/kg i.p., 96 hours after infection, PBS control 0%): 22.2%
survival, low versus high doses ([1]; s.c., approximately <0.5 mg/kg per day compared with >1 mg/kg per day, FIG. 3): increased survival
plasma half-life ([7]; iv): 2 to 4 h
plasma half-life ([7]; sc): 3 to 6 h
plasma half-life relative to unfractionated heparin [7]: 2-4 times
survival rates as compared to control mice treated with PBS ([8]; data not shown): lower survival rates
adverse effects (bleeding) ([8]; high doses, infected mice): signs of bleeding after only 48 hr
survival rate ([9]; high dose 5 mg/kg i.p., after infection, p=0.0017 versus control): 92.8%
survival rate ([9]; prophylaxis dose 1 mg/kg i.p., 14 days after infection, PBS control 33.3%): 66.7%
